According to US20070197446A1, “MHC binding peptides and their uses” (ProImmune Limited, priority 2006, published 2007):

Key:
Assay type in all cases: binding
HLA-B*0801 = HLA-B*0801 (Homo sapiens, UniProt P01889, A93T/A95T/D138N/E176V/E187T/K202T/Q94N/R180D/S35A/V36M/Y33D/Y91F)
HLA-A*0201 = HLA-A*0201 (Homo sapiens, UniProt P04439, D140Y/D185E/D98H/E176V/E277Q/G131W/G231S/I119V/I121R/I166T/I218V/L300P/L318F/N151K/N90K/P208A/P217A/Q86G/Q94H/R138H/R169H/T345S)
HLA-A*0101 = HLA-A*0101 (Homo sapiens, UniProt P04439, A114D/A174V/A182V/D101N/D185E/E176A/E190D/L180R/Q94H/R68K/S129P/T187R/V100A/V91M/W191G)
HLA-B*3501 = HLA-B*3501 (Homo sapiens, UniProt P01889, A329T/A93T/A95T/C349S/D201E/D98Y/E176V/E187L/E204Q/E69T/I218V/K202T/L119I/Q94N/R155S/R180L/S121R/S35A/S48A/T118I/V127L/V306I/V36M/Y140S/Y91F)
HLA-A*0301 = HLA-A*0301 (Homo sapiens, UniProt P04439)
HLA-B*0702 = HLA-B*0702 (Homo sapiens, UniProt P01889)

VTHAQDILE [SEQ ID NO: 33] was tested, and the “ELISA (Absorption-Pass/Fail Control)” value (HLA-B*0801) was 0.31.

For LILRDCSVA [SEQ ID NO: 23], the “ELISA (Absorption-Pass/Fail Control)” value (HLA-A*0201) was 0.57 and the “ELISA (Absorption-Pass/Fail Control)” value (HLA-B*0801) was 0.07.

IMEKNVTVT [SEQ ID NO: 19] was tested, and the “ELISA (Absorption-Pass/Fail Control)” value (HLA-A*0201) was 0.02.

With PLILRDCSV [SEQ ID NO: 36] the “ELISA (Absorption-Pass/Fail Control)” value (HLA-B*0801) was 0.65.

With NVPEWSYIV [SEQ ID NO: 25] the “ELISA (Absorption-Pass/Fail Control)” value (HLA-A*0201) was 1.03.

In the case of PMCDEFINV [SEQ ID NO: 24], the “ELISA (Absorption-Pass/Fail Control)” value (HLA-A*0201) is reported as 0.98.

In the case of “YSEHPFTSQY (T cell epitope) [SEQ ID NO: 2, reference compound]”, the “ELISA (Absorption-Pass/Fail Control)” value (HLA-A*0101) is reported as 0.58 and the “efficiency of binding to HLA-A*0101 (in words)” value (HLA-A*0101) is reported as “high efficiency”.

IVSLVKSDQ [SEQ ID NO: 15] was tested, and the “ELISA (Absorption-Pass/Fail Control)” value (HLA-A*0201) was 0.04.

DTIMEKNVT [SEQ ID NO: 32] was tested, and the “ELISA (Absorption-Pass/Fail Control)” value (HLA-B*0801) was 0.08.

In the case of LGNPMCDEF [SEQ ID NO: 43], the “ELISA (Absorption-Pass/Fail Control)” value (HLA-B*3501) is reported as 0.35.

For VLLFAIVSL [SEQ ID NO: 11], the “ELISA (Absorption-Pass/Fail Control)” value (HLA-A*0201) was 0.47.

In the case of AIVSLVKSD [SEQ ID NO: 14], the “ELISA (Absorption-Pass/Fail Control)” value (HLA-A*0201) is reported as 0.43.

DILEKKHNG [SEQ ID NO: 34] was tested, and the “ELISA (Absorption-Pass/Fail Control)” value (HLA-B*0801) was 0.53.

With AQDILEKKH [SEQ ID NO: 21] the “ELISA (Absorption-Pass/Fail Control)” value (HLA-A*0201) was 0.15.

LLFAIVSLV [SEQ ID NO: 12] was tested, and the “ELISA (Absorption-Pass/Fail Control)” value (HLA-A*0201) was 1.06.

“HPVGEADYFEY (T cell epitope) [SEQ ID NO: 8, reference compound]” was tested, and the “ELISA (Absorption-Pass/Fail Control)” value (HLA-B*3501) was 0.55 and the “efficiency of binding to HLA-B*3501 (in words)” value (HLA-B*3501) was “high efficiency”.

HANNSTEQV [SEQ ID NO: 17] was tested, and the “ELISA (Absorption-Pass/Fail Control)” value (HLA-B*3501) was 0.43 and the “ELISA (Absorption-Pass/Fail Control)” value (HLA-A*0201) was 0.43.

VAGWLLGNP [SEQ ID NO: 37] was tested, and the “ELISA (Absorption-Pass/Fail Control)” value (HLA-B*0801) was 0.04.

With KLCDLDGVK [SEQ ID NO: 22] the “ELISA (Absorption-Pass/Fail Control)” value (HLA-A*0301) was 1.16 and the “ELISA (Absorption-Pass/Fail Control)” value (HLA-A*0201) was 0.20.

In the case of MEKNVTVTH [SEQ ID NO: 20], the “ELISA (Absorption-Pass/Fail Control)” value (HLA-A*0201) is reported as −0.02.

ILRDCSVAG [SEQ ID NO: 30] was tested, and the “ELISA (Absorption-Pass/Fail Control)” value (HLA-B*0702) was 0.03.

With GNPMCDEFI [SEQ ID NO: 39] the “ELISA (Absorption-Pass/Fail Control)” value (HLA-B*0801) was 0.04.

For FINVPEWSY [SEQ ID NO: 10], the “ELISA (Absorption-Pass/Fail Control)” value (HLA-B*3501) was 0.57 and the “ELISA (Absorption-Pass/Fail Control)” value (HLA-A*0101) was 0.16.

With LVKSDQICI [SEQ ID NO: 29] the “ELISA (Absorption-Pass/Fail Control)” value (HLA-B*0702) was −0.06 and the “ELISA (Absorption-Pass/Fail Control)” value (HLA-B*3501) was 0.04.

YIVEKANPV [SEQ ID NO: 26] was tested, and the “ELISA (Absorption-Pass/Fail Control)” value (HLA-B*0702) was 0.11, the “ELISA (Absorption-Pass/Fail Control)” value (HLA-A*0201) was 1.02 and the “ELISA (Absorption-Pass/Fail Control)” value (HLA-B*0801) was 0.32.

SLVKSDQIC [SEQ ID NO: 16] was tested, and the “ELISA (Absorption-Pass/Fail Control)” value (HLA-B*3501) was −0.03 and the “ELISA (Absorption-Pass/Fail Control)” value (HLA-A*0201) was 0.09.

For KSDQICIGY [SEQ ID NO: 9], the “ELISA (Absorption-Pass/Fail Control)” value (HLA-A*0101) was 0.47 and the “ELISA (Absorption-Pass/Fail Control)” value (HLA-A*0301) was 0.05.

In the case of FAIVSLVKS [SEQ ID NO: 13], the “ELISA (Absorption-Pass/Fail Control)” value (HLA-A*0201) is reported as 0.07.

In the case of ILEKKHNGK [SEQ ID NO: 28], the “ELISA (Absorption-Pass/Fail Control)” value (HLA-A*0301) is reported as −0.01 and the “ELISA (Absorption-Pass/Fail Control)” value (HLA-B*0801) is reported as 0.95.

In the case of “ILRGSVAHK (T cell epitope) [SEQ ID NO: 5, reference compound]”, the “ELISA (Absorption-Pass/Fail Control)” value (HLA-A*0301) is reported as 1.19 and the “efficiency of binding to HLA-A*0301 (in words)” value (HLA-A*0301) is reported as “high efficiency”.

With NVTVTHAQD [SEQ ID NO: 27] the “ELISA (Absorption-Pass/Fail Control)” value (HLA-A*0301) was −0.04 and the “ELISA (Absorption-Pass/Fail Control)” value (HLA-B*0801) was 0.08.

With AGWLLGNPM [SEQ ID NO: 42] the “ELISA (Absorption-Pass/Fail Control)” value (HLA-B*3501) was −0.06.

In the case of KPLILRDCS [SEQ ID NO: 35], the “ELISA (Absorption-Pass/Fail Control)” value (HLA-B*0801) is reported as 0.10.

With WLLGNPMCD [SEQ ID NO: 38] the “ELISA (Absorption-Pass/Fail Control)” value (HLA-B*0801) was 0.03.

With KKHNGKLCD [SEQ ID NO: 41] the “ELISA (Absorption-Pass/Fail Control)” value (HLA-B*3501) was −0.05.

For TIMEKNVTV [SEQ ID NO: 18], the “ELISA (Absorption-Pass/Fail Control)” value (HLA-B*0702) was 0.00, the “ELISA (Absorption-Pass/Fail Control)” value (HLA-A*0201) was 0.99 and the “ELISA (Absorption-Pass/Fail Control)” value (HLA-B*0801) was 0.80.

With VSLVKSDQI [SEQ ID NO: 31] the “ELISA (Absorption-Pass/Fail Control)” value (HLA-B*0801) was 0.36.

LFAIVSLVK [SEQ ID NO: 40] was tested, and the “ELISA (Absorption-Pass/Fail Control)” value (HLA-B*3501) was 0.10.

With “TPRVTGGGAM (T cell epitope) [SEQ ID NO: 6, reference compound]” the “ELISA (Absorption-Pass/Fail Control)” value (HLA-B*0702) was 0.88 and the “efficiency of binding to HLA-B*0702 (in words)” value (HLA-B*0702) was “high efficiency”.
